Experimental findings from patent US20250051347A1, “BIFUNCTIONAL CHIMERIC HETEROCYCLIC COMPOUND AND USE THEREOF AS ANDROGEN RECEPTOR DEGRADER” (Hinova Pharmaceuticals, Inc., priority 2021, published 2025) are described below.

A word on the DC50: it is the concentration giving 50% degradation. Low readings indicate degradation at low concentration, high ones degradation only at high concentration. As a reminder, the IC50 is the concentration that gives 50% inhibition.

The target in assay [1] is T1, androgen receptor (AR) splicing variant AR-v7 (Homo sapiens, UniProt P10275).
T1 construct: The degradation activity of compounds on AR-v7 in 22RV1 cells; host or cells: 22RV1 cells
T1 sequence (P10275 1-644 isoform P10275-3): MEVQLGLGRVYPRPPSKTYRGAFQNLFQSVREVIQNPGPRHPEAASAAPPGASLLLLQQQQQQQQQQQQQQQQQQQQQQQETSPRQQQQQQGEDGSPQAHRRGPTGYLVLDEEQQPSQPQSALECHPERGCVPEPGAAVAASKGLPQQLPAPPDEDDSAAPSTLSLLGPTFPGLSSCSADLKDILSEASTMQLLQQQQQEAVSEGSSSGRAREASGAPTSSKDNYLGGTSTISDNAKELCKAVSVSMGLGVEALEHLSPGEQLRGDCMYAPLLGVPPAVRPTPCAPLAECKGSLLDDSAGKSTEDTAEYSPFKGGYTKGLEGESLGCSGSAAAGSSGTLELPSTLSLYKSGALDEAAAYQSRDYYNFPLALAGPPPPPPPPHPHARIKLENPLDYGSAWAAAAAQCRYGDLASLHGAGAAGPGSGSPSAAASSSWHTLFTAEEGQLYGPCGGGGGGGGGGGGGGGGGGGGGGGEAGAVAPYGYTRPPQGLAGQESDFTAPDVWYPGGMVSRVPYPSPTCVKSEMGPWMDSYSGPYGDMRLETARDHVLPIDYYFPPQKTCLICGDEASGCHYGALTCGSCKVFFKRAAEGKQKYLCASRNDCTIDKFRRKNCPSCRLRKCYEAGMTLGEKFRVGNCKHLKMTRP
The assay is described as follows: Degradation activity on androgen receptor splicing variant AR-v7 in 22RV1 cells (ELISA). To be noted: AR-v7 degradation in 22RV1 cells, 48 h, class symbols. Type of assay: cell-based.

The test system of assay [2] is 22RV1 cells.
Description: • 22RV1 cell lines (Cobioer, CBP6034) • Penicillin-Streptomycin (Hyclone, Cat. No. SV30010) • Cell counting kit-8 (Signalway Antibody, Cat. No. CP002)
Then, two wells were set for each concentration. 20 μL of the diluted compound solution was added to the cell culture well, and then the plate was gently shaken to mix. In addition, the experiment included 3 negative control wells only containing cells and 3 blank control wells only containing culture medium.
Setting [3] is: Homo sapiens, 22Rv1, 144 h, read-out: 22RV1 IC50 (nM), 22RV1 cells, 6 days culture, CCK-8, OD 450 nm.

The structures appear in SMILES notation. Where two headings read alike, the source gives them in different places.

In the case of `CC(C)(c1ccc(OCCCNc2ccc3c(c2)C(=O)N(C2CCC(=O)NC2=O)C3=O)cc1)c1ccc(OCc2ccnc(N)n2)cc1` (centres unmarked) [Example 74, 5-((3-(4-(2-(4-((2-aminopyrimidin-4-yl)methoxy)phenyl)propan-2-yl)phenoxy)propyl)amino)-2-(2,6-dioxopiperidin-3-yl)isoindolin-1,3-dione], in assay [1], the DC50 is 11 to 100 nM. In assay [2] (setting [3]), the IC50 is 31 nM.

In assay [1], `CC(C)(c1ccc(OCCCNc2ccc3c(c2)C(=O)N(C2CCC(=O)NC2=O)C3=O)cc1)c1ccc(OCc2ccnc(N3CCC4(CC3)COC4)n2)cc1` (centres unmarked) [Example 77, 5-((3-(4-(2-(4-((2-(2-oxa-7-azaspiro[3.5]nonan-7-yl)pyrimidin-4-yl)methoxy)phenyl)propan-2-yl)phenoxy)propyl)amino)-2-(2,6-dioxopiperidin-3-yl)isoindolin-1,3-dione] registered a DC50 of 11 to 100 nM. For the same compound, the IC50 in assay [2] (setting [3]) was 44 nM.

Regarding `CC(C)(c1ccc(OCc2ccnc(N3CC4(CCOC4)C3)n2)cc1)c1ccc(O[C@H]2C[C@@H](Nc3ccc4c(c3)C(=O)N(C3CCC(=O)NC3=O)C4=O)C2)cc1` (some centres unmarked) [Example 88, 5-(((1s,3s)-3-(4-(2-(4-((2-(6-oxa-2-azaspiro[3.4]octan-2-yl)pyrimidin-4-yl)methoxy)phenyl)propan-2-yl)phenoxy)cyclobutyl)amino)-2-(2,6-dioxopiperidin-3-yl)isoindolin-1,3-dione], the DC50 in assay [1] was < 10 nM. Also, the IC50 in assay [2] (setting [3]) was determined as 15 nM.

On to `CC(C)(c1ccc(OCc2ccnc(N3CC4(CCOCC4)C3)n2)cc1)c1ccc(O[C@H]2C[C@@H](Nc3ccc4c(c3)C(=O)N(C3CCC(=O)NC3=O)C4=O)C2)cc1` (some centres unmarked) [Example 89, 5-(((1s,3s)-3-(4-(2-(4-((2-(7-oxa-2-azaspiro[3.5]nonan-2-yl)pyrimidin-4-yl)methoxy)phenyl)propan-2-yl)phenoxy)cyclobutyl)amino)-2-(2,6-dioxopiperidin-3-yl)isoindolin-1,3-dione], for which the DC50 in assay [1] was < 10 nM. In addition, the IC50 in assay [2] (setting [3]) came out at 16 nM.

Regarding `CC(C)(c1ccc(OCc2ccnc(N3CC4(COC4)C3)n2)cc1)c1ccc(O[C@H]2C[C@@H](Nc3ccc4c(c3)CN(C3CCC(=O)NC3=O)C4=O)C2)cc1` (some centres unmarked) [Example 91, 3-(5-(((1s,3s)-3-(4-(2-(4-((2-(2-oxa-6-azaspiro[3.3]heptane-6-yl)pyrimidin-4-yl)methoxy)phenyl)propan-2-yl)phenoxy)cyclobutyl)amino)-1-oxoisoindolin-2-yl)piperidin-2,6-dione], in assay [1], the 50% degradation concentration (DC50) is < 10 nM. Moreover, the 50% inhibitory concentration (IC50) in assay [2] (setting [3]) is 2 nM.

For `Cc1nnc(-c2ncc(F)cc2Oc2ccc(C(C)(C)c3ccc(O[C@H]4C[C@H](Nc5ccc6c(c5)C(=O)N(C5CCC(=O)NC5=O)C6=O)C4)cc3)cc2)o1` (some centres unmarked) [Example 95, 2-(2,6-dioxopiperidin-3-yl)-5-(((1r,3r)-3-(4-(2-(4-((5-fluoro-2-(5-methyl-1,3,4-oxadiazol-2-yl)pyridin-3-yl)oxy)phenyl)propan-2-yl)phenoxy)cyclobutyl)amino)isoindolin-1,3-dione], the DC50 in assay [1] was < 10 nM. Besides, in assay [2] (setting [3]), the IC50 was found to be 6 nM.

Consider `Cc1nnc(-c2cnc(Oc3ccc(C(C)(C)c4ccc(O[C@H]5C[C@H](Nc6ccc7c(c6)C(=O)N(C6CCC(=O)NC6=O)C7=O)C5)cc4)cc3)o2)o1` (some centres unmarked) [Example 96, 2-(2,6-dioxopiperidin-3-yl)-5-(((1r,3r)-3-(4-(2-(4-((5-(5-methyl-1,3,4-oxadiazol-2-yl)oxazol-2-yl)oxy)phenyl)propan-2-yl)phenoxy)cyclobutyl)amino) isoindolin-1,3-dione], for which the DC50 in assay [1] is < 10 nM. The IC50 in assay [2] (setting [3]) is 25 nM.

Regarding `Cc1nc(-c2ncc(Oc3ccc(C(C)(C)c4ccc(OC5CC(Nc6ccc7c(c6)CN([C@H]6CCC(=O)NC6=O)C7=O)C5)cc4)cc3)cn2)no1` (some centres unmarked) [Example 101], the DC50 in assay [1] is < 10 nM. In addition, the IC50 in assay [2] (read-out: 22RV1 IC50, 22RV1 cells, 6 days culture, CCK-8, OD 450 nm) was 2.4 nM.

In the case of `CC(O)c1ccc(Oc2ccc(C3(c4ccc(O[C@H]5C[C@H](Nc6ccc7c(c6)C(=O)N(C6CCC(=O)NC6=O)C7=O)C5)cc4)CCCC3)cc2)nn1` (some centres unmarked) [Example 103], the DC50 in assay [1] is < 10 nM. Further, in assay [2] (setting [3]), the IC50 was 2 nM.

Regarding `CC(=O)c1ccc(Oc2ccc(C3(c4ccc(O[C@H]5C[C@H](Nc6ccc7c(c6)C(=O)N(C6CCC(=O)NC6=O)C7=O)C5)cc4)CCCC3)cc2)nn1` (some centres unmarked) [Example 104], in assay [1], the DC50 is < 10 nM. Besides, in assay [2] (setting [3]), the IC50 turned out to be 1 nM.

With `CC(O)c1ccc(Oc2ccc(C3(c4ccc(O[C@H]5C[C@H](Nc6ccc7c(c6)C(=O)N(C6CCC(=O)NC6=O)C7=O)C5)cc4)CCOCC3)cc2)nn1` (some centres unmarked) [Example 105], the 50% degradation concentration (DC50) in assay [1] was < 10 nM. The IC50 in assay [2] (setting [3]) turned out to be 0.2 nM.

Take `CC(=O)c1ccc(Oc2ccc(C3(c4ccc(O[C@H]5C[C@H](Nc6ccc7c(c6)C(=O)N(C6CCC(=O)NC6=O)C7=O)C5)cc4)CCOCC3)cc2)nn1` (some centres unmarked) [Example 106]: in assay [1], the DC50 is < 10 nM. Moreover, the IC50 in assay [2] (setting [3]) was 0.3 nM.

As for `CC(=O)c1nccc(COc2ccc(C(C)(C)c3ccc(OCCNc4ccc5c(c4)C(=O)N(C4CCC(=O)NC4=O)C5=O)cc3)cc2)n1` (centres unmarked) [Example 109, 5-((2-(4-(2-(4-((2-acetylpyrimidin-4-yl)methoxy)phenyl)propan-2-yl)phenoxy)ethyl)amino)-2-(2,6-dioxopiperidin-3-yl) isoindolin-1,3-dione], the DC50 in assay [1] was < 10 nM. In addition, in assay [2] (setting [3]), the half-inhibitory concentration (IC50) worked out at 9 nM.

`CC(C)(c1ccc(OCc2ccnc(C(=O)C3CC3)n2)cc1)c1ccc(O[C@H]2C[C@H](Nc3ccc4c(c3)C(=O)N(C3CCC(=O)NC3=O)C4=O)C2)cc1` (stereo partly drawn) [Example 115, 5-(((trans)-3-(4-(2-(4-((2-(cyclopropanecarbonyl)pyrimidin-4-yl)methoxy)phenyl)propan-2-yl)phenoxy)cyclobutyl)amino)-2-(2,6-dioxopiperidin-3-yl)isoindolin-1,3-dione]: the DC50 in assay [1] is < 10 nM. Also, the IC50 in assay [2] (setting [3]) stood at 5 nM.

`CC(C)(c1ccc(OCc2cccc(C(O)C3CC3)n2)cc1)c1ccc(O[C@H]2C[C@H](Nc3ccc4c(c3)C(=O)N(C3CCC(=O)NC3=O)C4=O)C2)cc1` (stereo partly drawn) [Example 116, 5-(((trans)-3-(4-(2-(4-((6-(cyclopropyl(hydroxyl)methyl)pyridin-2-yl)methoxy)phenyl)propan-2-yl)phenoxy)cyclobutyl)amino)-2-(2,6-dioxopiperidin-3-yl)isoindolin-1,3-dione]: the 50% degradation concentration (DC50) in assay [1] was < 10 nM. Moreover, in assay [2] (setting [3]), the IC50 worked out at 17 nM.

`CC(O)c1ccc(Oc2ccc(C(C)(C)c3ccc(O[C@H]4C[C@H](Nc5ccc6c(c5)C(=O)N(C5CCC(=O)NC5=O)C6=O)C4)cc3)cc2)cn1` (some centres unmarked) [Example 123]: in assay [1], the DC50 was < 10 nM. Also, the IC50 in assay [2] (setting [3]) was 7 nM.

Turning to `CC(=O)c1ccc(Oc2ccc(C(C)(C)c3ccc(O[C@H]4C[C@H](Nc5ccc6c(c5)C(=O)N(C5CCC(=O)NC5=O)C6=O)C4)cc3)cc2)cn1` (some centres unmarked) [Example 124], the DC50 in assay [1] is < 10 nM. The IC50 in assay [2] (setting [3]) worked out at 8 nM.

In assay [1], `CC(=O)c1ncc(Oc2ccc(C(C)(C)c3ccc(O[C@H]4C[C@@H](Nc5ccc6c(c5)C(=O)N(C5CCC(=O)NC5=O)C6=O)C4)cc3)cc2)cn1` (stereo partly drawn) [Example 128, 5-(((cis)-3-(4-(2-(4-((2-acetylpyrimidin-5-yl)oxy)phenyl)propan-2-yl)phenoxy)cyclobutyl)amino)-2-(2,6-dioxopiperidin-3-yl)isoindolin-1,3-dione] yielded a half-maximal degradation concentration (DC50) of 11 to 100 nM. Besides, the IC50 in assay [2] (setting [3]) came to 7 nM.

Consider `CC(=O)c1cnc(Oc2ccc(C(C)(C)c3ccc(O[C@H]4C[C@@H](Nc5ccc6c(c5)C(=O)N(C5CCC(=O)NC5=O)C6=O)C4)cc3)cc2)cn1` (some centres unmarked) [Example 130], for which, in assay [1], the half-maximal degradation concentration (DC50) is < 10 nM. Besides, in assay [2] (setting [3]), the IC50 is 13 nM.
